Data on 13 molecules can be found in the supplement of paper PMC10627819.

Common to all, as to assay: Bliss interaction score (quartile over a dose matrix) (fitness difference); higher = more antagonism (negative = synergy)
For one test, the system named is S. pneumoniae D39V. The procedure, abridged: (§1)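 Fitness was derived from optical density at entry into stationary phase, divided by the robust mean of the no-drug wells on the same plate. That reading was taken as OD595, and the ratio was capped at 1. Single-drug fitness was inferred from the combination data. The Bliss score, observed fitness minus the expected product of single-drug fitness, was summarised as quartiles over technical, biological and donor/recipient replicates.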

In the next test the test system is B. subtilis 168. In outline: as §1
A further test deals with S. aureus DSM 20231. The procedure, abridged: as §1
In a further test the test system is S. aureus Newman. In outline: as §1
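Note: first quartile when negative (synergy) and third quartile when positive (antagonism).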

As for `CC(=O)OC[C@H]1O[C@@H]([S-])[C@H](OC(C)=O)[C@@H](OC(C)=O)[C@@H]1OC(C)=O.CCP(CC)CC.[Au+]` [Auranofin] + CC(C1CCC(C(O1)OC2C(CC(C(C2O)OC3C(C(C(CO3)(C)O)NC)O)N)N)N)NC [Gentamicin], the Bliss interaction score in the test with S. pneumoniae D39V (main component drawn) is -0.0834; in the test on B. subtilis 168 (main component drawn), -0.0544; with S. aureus DSM 20231 (main component drawn), 0.0359; in the test on S. aureus Newman (main component drawn), 0.0898.
Consider `N[C@@H]1CONC1=O` [CycloserineD] + CN(N=O)C(=O)N[C@@H](C=O)[C@@H](O)[C@H](O)[C@H](O)CO [Streptozotocin], for which the Bliss interaction score with S. pneumoniae D39V is -0.16; with B. subtilis 168, 0.0463; in the test with S. aureus DSM 20231, -0.14; with S. aureus Newman, -0.0611.
As to `C/C(=C\C(=O)OCCCCCCCCC(=O)O)C[C@@H]1OC[C@H](C[C@@H]2O[C@H]2[C@@H](C)[C@H](C)O)[C@@H](O)[C@H]1O` [Pseudomonic acid] + CC[C@H]1OC(=O)[C@H](C)C(=O)[C@H](C)[C@@H](O[C@@H]2O[C@H](C)C[C@H](N(C)C)[C@H]2O)[C@](C)(OC)C[C@@H](C)C(=O)[C@H](C)[C@H]2N(CCCCn3cnc(-c4cccnc4)c3)C(=O)O[C@]12C [Telithromycin], the Bliss interaction score was -0.0569 in the test with S. pneumoniae D39V, 0.0359 in the test on B. subtilis 168, 0.0119 in the test on S. aureus DSM 20231 and -0.028 with S. aureus Newman.
Consider `CC[C@H]1OC(=O)[C@H](C)[C@@H](O[C@H]2C[C@@](C)(OC)[C@@H](O)[C@H](C)O2)[C@H](C)[C@@H](O[C@@H]2O[C@H](C)C[C@H](N(C)C)[C@H]2O)[C@](C)(OC)C[C@@H](C)C(=O)[C@H](C)[C@@H](O)[C@]1(C)O` [Clarithromycin] + N[C@@H]1CONC1=O [CycloserineD], for which the Bliss interaction score with S. pneumoniae D39V is 0.136; with B. subtilis 168, 0.077; with S. aureus DSM 20231 it was -0.127; in the test on S. aureus Newman it was -0.0691.
As for `CC(=O)OC[C@H]1O[C@@H]([S-])[C@H](OC(C)=O)[C@@H](OC(C)=O)[C@@H]1OC(C)=O.CCP(CC)CC.[Au+]` [Auranofin] + CO/N=C(\C(=O)N[C@@H]1C(=O)N2C(C(=O)[O-])=C(C[N+]3(C)CCCC3)CS[C@H]12)c1csc(N)n1 [Cefepime], the Bliss interaction score is 0.114 in the test on S. pneumoniae D39V, 0.046 in the test on B. subtilis 168, 0.0512 in the test with S. aureus DSM 20231 and 0.0786 with S. aureus Newman.
Turning to `CC[C@H]1OC(=O)[C@H](C)[C@@H](O[C@H]2C[C@@](C)(OC)[C@@H](O)[C@H](C)O2)[C@H](C)[C@@H](O[C@@H]2O[C@H](C)C[C@H](N(C)C)[C@H]2O)[C@](C)(OC)C[C@@H](C)C(=O)[C@H](C)[C@@H](O)[C@]1(C)O` [Clarithromycin] + CN(C)[C@@H]1C(O)=C(C(N)=O)C(=O)[C@@]2(O)C(O)=C3C(=O)c4c(O)ccc(Cl)c4[C@@](C)(O)[C@H]3C[C@@H]12 [Clortetracycline], the Bliss interaction score was 0.0391 in the test on S. pneumoniae D39V, -0.392 with B. subtilis 168, -0.28 in the test with S. aureus DSM 20231 and -0.094 in the test on S. aureus Newman.
As for `CC(=O)OC[C@H]1O[C@@H]([S-])[C@H](OC(C)=O)[C@@H](OC(C)=O)[C@@H]1OC(C)=O.CCP(CC)CC.[Au+]` [Auranofin] + C[C@@H]1O[C@@H]1P(=O)(O)O [Fosfomycin], the Bliss interaction score was -0.0421 in the test on S. pneumoniae D39V, 0.0301 in the test on B. subtilis 168, 0.0509 in the test with S. aureus DSM 20231 and 0.0901 in the test with S. aureus Newman.
For `C[C@@H](O)[C@H]1C(=O)N2C(C(=O)O)=C(SCCNC=N)C[C@H]12` [Imipenem] + CO[C@@H]1[C@@H](OC(N)=O)[C@@H](O)[C@H](Oc2ccc3c(O)c(NC(=O)c4ccc(O)c(CC=C(C)C)c4)c(=O)oc3c2C)OC1(C)C [Novobiocin], in that order: -0.107, -0.166, 0.0228 and -0.0163.
The corresponding values for `C[C@@H](O)[C@H]1C(=O)N2C(C(=O)O)=C(SCCNC=N)C[C@H]12` [Imipenem] + Oc1cc(Cl)ccc1Oc1ccc(Cl)cc1Cl [Triclosan] are 0.0753, -0.0589, 0.0376 and 0.0211.
For `CC(=O)O[C@H]1C[C@@]2(C)[C@@H](C[C@@H](O)[C@H]3[C@@]4(C)CC[C@@H](O)[C@@H](C)[C@@H]4CC[C@@]32C)/C1=C(\CCC=C(C)C)C(=O)O` [Fusidic acid] + C[n+]1ccc(-c2cc[n+](C)cc2)cc1 [Paraquat], in that order: 0.0439, 0.0317, 0.0328 and 0.0284.
For the molecule `CC(=O)O[C@H]1C[C@@]2(C)[C@@H](C[C@@H](O)[C@H]3[C@@]4(C)CC[C@@H](O)[C@@H](C)[C@@H]4CC[C@@]32C)/C1=C(\CCC=C(C)C)C(=O)O` [Fusidic acid] + CN(C)C(=O)C(CCN1CCC(O)(c2ccc(Cl)cc2)CC1)(c1ccccc1)c1ccccc1 [Loperamide], the Bliss interaction score is 0.128 in the test with S. pneumoniae D39V, -0.0873 in the test on B. subtilis 168, 0.0226 with S. aureus DSM 20231 and 0.0269 in the test on S. aureus Newman.
In the case of `CC[C@H]1OC(=O)[C@H](C)[C@@H](O[C@H]2C[C@@](C)(OC)[C@@H](O)[C@H](C)O2)[C@H](C)[C@@H](O[C@@H]2O[C@H](C)C[C@H](N(C)C)[C@H]2O)[C@](C)(OC)C[C@@H](C)C(=O)[C@H](C)[C@@H](O)[C@]1(C)O` [Clarithromycin] + Oc1cc(Cl)ccc1Oc1ccc(Cl)cc1Cl [Triclosan], the Bliss interaction score in the test with S. pneumoniae D39V is 0.0396; with B. subtilis 168, 0.0259; in the test on S. aureus DSM 20231 it was -0.0868; with S. aureus Newman, 0.032.
The corresponding values for `CC(=O)OC[C@H]1O[C@@H]([S-])[C@H](OC(C)=O)[C@@H](OC(C)=O)[C@@H]1OC(C)=O.CCP(CC)CC.[Au+]` [Auranofin] + CN[C@@H]1[C@H](O)[C@H](NC)[C@H]2O[C@@]3(O)C(=O)C[C@@H](C)O[C@H]3O[C@@H]2[C@H]1O [Spectinomycin] are -0.162, 0.0604, 0.0611 and 0.0532.
